This passage reports IC50 results from ChEMBL document CHEMBL3301562, “MMV Box screening against Plasmodium falciparum protein kinases and aminoacyl tRNA synthetases”.

By IC50 is commonly meant the concentration that gives 50% inhibition.

What all share (format): functional
For test [1], the target named is Calcium-dependent protein kinase 1 (Plasmodium falciparum, UniProt P62344). The test is described as follows: MMV: CDPK1 Protein kinase inhibition assay using recombinant PfCDPK1, syntide 2 peptide substrate, ATP and KinaseGlo to measure % inhibition at 1 uM MMV box compound. Background: Kinase-Glo reads ATP consumption through a luciferase reaction.
Sequence of Calcium-dependent protein kinase 1 (P62344 whole entry): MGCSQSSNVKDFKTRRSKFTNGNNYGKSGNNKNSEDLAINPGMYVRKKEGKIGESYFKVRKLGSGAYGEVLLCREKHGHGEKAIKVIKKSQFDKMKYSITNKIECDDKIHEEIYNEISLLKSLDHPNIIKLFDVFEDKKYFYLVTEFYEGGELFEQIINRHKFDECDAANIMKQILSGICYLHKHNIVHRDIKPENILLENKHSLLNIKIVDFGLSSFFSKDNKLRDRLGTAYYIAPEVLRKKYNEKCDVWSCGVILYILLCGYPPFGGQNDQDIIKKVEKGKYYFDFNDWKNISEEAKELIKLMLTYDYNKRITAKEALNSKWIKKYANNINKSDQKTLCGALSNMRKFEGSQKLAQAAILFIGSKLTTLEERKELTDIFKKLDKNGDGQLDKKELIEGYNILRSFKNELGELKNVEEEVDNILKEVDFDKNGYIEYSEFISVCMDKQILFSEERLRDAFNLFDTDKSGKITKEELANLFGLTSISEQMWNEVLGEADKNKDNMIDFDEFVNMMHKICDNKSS
Test [2] addresses T1, Cdk-related protein kinase 6 (Plasmodium falciparum, UniProt O77239).
T1 sequence (O77239 whole entry): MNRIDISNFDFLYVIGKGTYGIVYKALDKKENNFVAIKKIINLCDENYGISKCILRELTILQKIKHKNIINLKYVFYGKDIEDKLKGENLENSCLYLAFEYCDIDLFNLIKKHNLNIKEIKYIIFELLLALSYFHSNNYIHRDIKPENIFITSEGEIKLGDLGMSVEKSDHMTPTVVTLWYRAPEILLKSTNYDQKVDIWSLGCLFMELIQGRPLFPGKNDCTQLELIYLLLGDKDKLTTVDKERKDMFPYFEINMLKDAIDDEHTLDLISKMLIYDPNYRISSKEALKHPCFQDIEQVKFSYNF
In words: Final concentrations were 1.5 uM ATP, 5 mM MnCl2, and 15 ug/ml PK6 in a buffer of 100 mM Tris-HCl (pH 7.5). 50 ug/mL MBP was provided as the substrate; 10 uM staurosporine was used as a control inhibitor. Incubation time was 3 hours and 40 minutes.The catalytic activity of each kinase was considered proportional to ATP consumed, as determined from measurements of residual [ATP] with the luciferase-based reagent Kinase-Glo (Promega) following incubation. Luminescence (proportional to residual [ATP]) was measured on the plate readers FLx800 (BioTek Instruments, Winooski, VT, USA) and MicroBeta2.

The target of test [3] is T2, Mitogen-activated protein kinase (Plasmodium falciparum, UniProt Q25917).
T2 sequence (Q25917 whole entry): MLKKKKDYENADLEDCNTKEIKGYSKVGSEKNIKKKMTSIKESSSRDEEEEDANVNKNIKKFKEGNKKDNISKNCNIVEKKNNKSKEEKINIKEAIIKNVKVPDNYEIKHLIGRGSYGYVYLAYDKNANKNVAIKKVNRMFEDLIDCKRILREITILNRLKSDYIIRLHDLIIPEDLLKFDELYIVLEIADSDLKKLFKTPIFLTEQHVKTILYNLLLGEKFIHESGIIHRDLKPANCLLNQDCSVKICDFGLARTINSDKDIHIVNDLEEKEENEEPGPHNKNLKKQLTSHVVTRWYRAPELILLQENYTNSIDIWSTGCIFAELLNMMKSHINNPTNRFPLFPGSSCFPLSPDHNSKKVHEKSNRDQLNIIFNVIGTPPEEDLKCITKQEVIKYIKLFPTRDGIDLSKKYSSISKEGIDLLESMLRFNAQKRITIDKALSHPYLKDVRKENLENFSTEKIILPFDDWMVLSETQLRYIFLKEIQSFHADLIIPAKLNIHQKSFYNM
The test is described as follows: Final concentrations were 1 uM ATP, 0.5 mM DTT, 1 mM MgCl2, 0.5 mg/mL BSA, and 10 ug/ml MAP2 in a buffer of 50 mM HEPES (pH 7.0). 0.5 mg/mL histone III-S served as the substrate (13); 100 uM AMP-PNP, an ATP analog, was used as a control inhibitor. Incubation time was 4 hours.

A further test addresses Lysine--tRNA ligase (Plasmodium falciparum (isolate 3D7), UniProt Q8IDJ8). The test is described as follows: MMV: KRS recombinant Plasmodium falciparum Lysyl-tRNA-synthetase, assay with yeast tRNA, ATP, and lysine and 3 uM MMV malaria box compound, assay read out with kinase glo as % inhibition.
In the next test the target is T3, Proline--tRNA ligase (Plasmodium falciparum (isolate 3D7), UniProt Q8I5R7).
T3 sequence (Q8I5R7 whole entry): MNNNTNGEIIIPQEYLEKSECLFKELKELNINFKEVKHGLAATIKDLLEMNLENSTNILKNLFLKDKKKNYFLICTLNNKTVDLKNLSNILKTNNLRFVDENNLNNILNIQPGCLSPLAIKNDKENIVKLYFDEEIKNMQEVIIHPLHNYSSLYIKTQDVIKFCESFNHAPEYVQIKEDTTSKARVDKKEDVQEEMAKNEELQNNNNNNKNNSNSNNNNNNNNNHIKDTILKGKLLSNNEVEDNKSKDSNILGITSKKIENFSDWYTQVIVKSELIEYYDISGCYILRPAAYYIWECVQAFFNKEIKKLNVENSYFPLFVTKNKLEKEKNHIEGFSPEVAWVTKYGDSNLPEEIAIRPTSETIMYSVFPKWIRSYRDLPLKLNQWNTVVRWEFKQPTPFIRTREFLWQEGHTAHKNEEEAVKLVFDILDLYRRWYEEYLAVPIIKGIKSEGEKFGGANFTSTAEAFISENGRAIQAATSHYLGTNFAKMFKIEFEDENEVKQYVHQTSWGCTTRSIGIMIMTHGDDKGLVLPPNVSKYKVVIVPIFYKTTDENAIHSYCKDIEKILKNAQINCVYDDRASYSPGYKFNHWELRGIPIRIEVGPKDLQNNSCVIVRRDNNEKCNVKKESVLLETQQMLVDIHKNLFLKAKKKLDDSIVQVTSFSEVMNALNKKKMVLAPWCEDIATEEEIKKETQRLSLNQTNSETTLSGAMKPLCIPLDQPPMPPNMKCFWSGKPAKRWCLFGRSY
In words: MMV: ProRS recombinant Plasmodium falciparum Prolyl-tRNA-synthetase, assay with yeast tRNA, ATP, and proline and 3 uM MMV malaria box compound, assay read out with kinase glo as % inhibition.

For test [4], the target named is T4, Putative uncharacterized protein pk7 (Plasmodium falciparum, UniProt O96214).
T4 sequence (O96214 whole entry): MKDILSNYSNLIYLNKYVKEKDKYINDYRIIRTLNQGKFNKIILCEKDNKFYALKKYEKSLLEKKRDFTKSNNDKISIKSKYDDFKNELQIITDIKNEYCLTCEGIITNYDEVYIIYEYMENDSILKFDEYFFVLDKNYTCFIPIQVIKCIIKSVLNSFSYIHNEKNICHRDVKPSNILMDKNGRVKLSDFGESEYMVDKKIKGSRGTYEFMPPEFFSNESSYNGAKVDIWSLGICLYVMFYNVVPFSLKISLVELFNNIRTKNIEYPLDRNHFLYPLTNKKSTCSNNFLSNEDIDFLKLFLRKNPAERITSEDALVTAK
The test is described as follows: Final concentrations were 1 uM ATP, 2 mM DTT, 20 mM MgCl2, 2 mM MnCl2, 0.01% BSA, and 6 ug/ml PK7, in a buffer of 20 mM Tris-HCl (pH 7.5). The enzyme itself was the only substrate present (since autophosphorylation occurs); 100 uM 1NA-PP1 was used as a control inhibitor. Incubation time was 3 hours.

Test [5] deals with T5, Calcium-dependent protein kinase 4 (Plasmodium falciparum (isolate 3D7), UniProt Q8IBS5).
T5 sequence (Q8IBS5 whole entry): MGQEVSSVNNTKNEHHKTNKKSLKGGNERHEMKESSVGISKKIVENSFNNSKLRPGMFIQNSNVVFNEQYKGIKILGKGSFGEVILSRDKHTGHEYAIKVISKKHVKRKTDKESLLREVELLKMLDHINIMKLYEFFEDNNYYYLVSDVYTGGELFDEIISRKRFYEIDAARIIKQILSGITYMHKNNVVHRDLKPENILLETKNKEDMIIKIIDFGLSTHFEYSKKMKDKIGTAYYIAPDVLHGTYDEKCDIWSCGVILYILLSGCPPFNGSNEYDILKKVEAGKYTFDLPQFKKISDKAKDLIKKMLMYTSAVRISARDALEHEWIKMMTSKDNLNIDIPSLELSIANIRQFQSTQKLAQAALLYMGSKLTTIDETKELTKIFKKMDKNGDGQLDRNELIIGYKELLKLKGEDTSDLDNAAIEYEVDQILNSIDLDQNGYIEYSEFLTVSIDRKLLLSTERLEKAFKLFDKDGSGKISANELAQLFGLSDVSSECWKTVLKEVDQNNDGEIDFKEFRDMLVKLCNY
The test is described as follows: MMV: CDPK4 Protein kinase inhibition assay using recombinant PfCDPK4, syntide2 peptide substrate, ATP and KinaseGlo to measure % inhibition at 1 uM MMV box compound.

Sequence of Lysine--tRNA ligase (Q8IDJ8 whole entry): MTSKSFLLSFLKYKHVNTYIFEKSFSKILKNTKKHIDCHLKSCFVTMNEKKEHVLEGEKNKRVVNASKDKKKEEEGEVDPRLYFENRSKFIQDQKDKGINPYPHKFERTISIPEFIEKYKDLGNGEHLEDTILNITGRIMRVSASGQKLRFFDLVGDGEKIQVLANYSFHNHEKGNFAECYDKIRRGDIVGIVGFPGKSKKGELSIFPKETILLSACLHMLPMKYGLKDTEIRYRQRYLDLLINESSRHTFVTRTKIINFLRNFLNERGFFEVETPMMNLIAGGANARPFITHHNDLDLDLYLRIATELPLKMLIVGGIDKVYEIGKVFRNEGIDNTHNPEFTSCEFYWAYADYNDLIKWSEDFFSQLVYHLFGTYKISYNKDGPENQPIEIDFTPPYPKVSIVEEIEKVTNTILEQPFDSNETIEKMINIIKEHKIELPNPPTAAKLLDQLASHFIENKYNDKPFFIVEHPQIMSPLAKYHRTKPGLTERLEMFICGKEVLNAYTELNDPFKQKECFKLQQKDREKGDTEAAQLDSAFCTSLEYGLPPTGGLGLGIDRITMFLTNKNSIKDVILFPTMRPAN

In the case of `Oc1ccccc1CN1CCC2(CCCN(Cc3ccccc3F)C2)C1` (stereo not drawn), the IC50 in test [1] was greater than 1000 nM; in test [2], greater than 1000 nM; in test [3], greater than 1000 nM; at Lysine--tRNA ligase it was greater than 2500 nM; on Proline--tRNA ligase it was greater than 2500 nM; in test [4], greater than 1000 nM. Further, the IC50 in test [5] was greater than 1000 nM.

Take `Cc1ccc(-c2cc(C(=O)Nc3ccc(S(=O)(=O)N4CCCCC4)cc3)[nH]n2)c(O)c1`: the IC50 is greater than 1000 nM in test [1]; greater than 1000 nM in test [2]; greater than 1000 nM in test [3]; greater than 2500 nM on Lysine--tRNA ligase; greater than 2500 nM at Proline--tRNA ligase; greater than 1000 nM in test [4]. For the same compound, the IC50 in test [5] was greater than 1000 nM.

For the compound `Cc1[nH]c(-c2ccc(F)cc2)cc1C(=O)NC1CCN(Cc2ccccc2)CC1`, the IC50 is greater than 1000 nM in test [1]; greater than 1000 nM in test [2]; greater than 1000 nM in test [3]; greater than 2500 nM at Lysine--tRNA ligase; greater than 2500 nM at Proline--tRNA ligase; greater than 1000 nM in test [4]. Moreover, the IC50 in test [5] was greater than 1000 nM.

For the compound `O=C(NC1CCCC1)c1ccc(N2CCC(NCc3cccc(C(F)(F)F)c3)CC2)cc1`, the half-maximal inhibitory concentration (IC50) in test [1] was greater than 1000 nM; in test [2], greater than 1000 nM; in test [3], greater than 1000 nM; on Lysine--tRNA ligase, greater than 2500 nM; on Proline--tRNA ligase it was greater than 2500 nM; in test [4], greater than 1000 nM. The IC50 in test [5] was greater than 1000 nM.

`CCOc1cc(Br)c(C(C)NC(=O)c2cccc(OC)c2)cc1OCC` (stereo not drawn): the half-maximal inhibitory concentration (IC50) in test [1] was greater than 1000 nM; in test [2] it was greater than 1000 nM; in test [3], greater than 1000 nM; at Lysine--tRNA ligase, greater than 2500 nM; on Proline--tRNA ligase, greater than 2500 nM; in test [4], greater than 1000 nM. In addition, in test [5], the IC50 was greater than 1000 nM.

Turning to `CCN(CC)CCn1c(=N)n(CC(O)c2ccc(Cl)c(Cl)c2)c2ccccc21` (stereo not drawn), the concentration for half-maximal inhibition (IC50) was greater than 1000 nM in test [1]; greater than 1000 nM in test [2]; greater than 1000 nM in test [3]; greater than 2500 nM on Lysine--tRNA ligase; greater than 2500 nM at Proline--tRNA ligase; greater than 1000 nM in test [4]. Further, the half-maximal inhibitory concentration (IC50) in test [5] is greater than 1000 nM.

On to `CC(=O)NCCc1nc2ccccc2n1Cc1ccc(C(C)C)cc1`, for which the IC50 was greater than 1000 nM in test [1]; greater than 1000 nM in test [2]; greater than 1000 nM in test [3]; greater than 2500 nM on Lysine--tRNA ligase; greater than 2500 nM on Proline--tRNA ligase; greater than 1000 nM in test [4]. Moreover, the IC50 in test [5] was greater than 1000 nM.

As for `CC(C)(C)C(=O)Nc1ccc(C(=O)Nc2cccc(-c3nc4ccccc4[nH]3)c2)cc1`, the half-inhibitory concentration (IC50) in test [1] is greater than 1000 nM; in test [2], greater than 1000 nM; in test [3], greater than 1000 nM; at Lysine--tRNA ligase, greater than 2500 nM; on Proline--tRNA ligase, greater than 2500 nM; in test [4], greater than 1000 nM. In test [5], the IC50 is greater than 1000 nM.

As for `COc1ccc(-c2nonc2NC(=O)c2cccc(C)c2)cc1OC`, the 50% inhibitory concentration (IC50) was greater than 1000 nM in test [1]; greater than 1000 nM in test [2]; greater than 1000 nM in test [3]; greater than 2500 nM at Lysine--tRNA ligase; greater than 2500 nM on Proline--tRNA ligase; greater than 1000 nM in test [4]. For the same compound, the IC50 in test [5] was greater than 1000 nM.

Consider `CC(C)(C)c1ccc(C(=O)Nc2nc3ccccc3s2)cc1`, for which the half-inhibitory concentration (IC50) was greater than 1000 nM in test [1]; greater than 1000 nM in test [2]; greater than 1000 nM in test [3]; greater than 2500 nM at Lysine--tRNA ligase; greater than 2500 nM at Proline--tRNA ligase; greater than 1000 nM in test [4]. Besides, the IC50 in test [5] was greater than 1000 nM.

As to `COc1ccc(C2N(C)c3ccccc3N2C)cc1`, the 50% inhibitory concentration (IC50) in test [1] is greater than 1000 nM; in test [2], greater than 1000 nM; in test [3], greater than 1000 nM; on Lysine--tRNA ligase, greater than 2500 nM; on Proline--tRNA ligase, greater than 2500 nM; in test [4], greater than 1000 nM. In addition, in test [5], the IC50 was greater than 1000 nM.

Consider `CC(C)OCc1cc(CN2CCN(c3cccc(Cl)c3)CC2)c(O)c2ncccc12`, for which the IC50 in test [1] was greater than 1000 nM; in test [2], greater than 1000 nM; in test [3], greater than 1000 nM; on Lysine--tRNA ligase, greater than 2500 nM; on Proline--tRNA ligase it was greater than 2500 nM; in test [4], greater than 1000 nM. In test [5], the IC50 was greater than 1000 nM.

For `CCCN(CCC)CCCNC(=O)c1cc2c(-c3ccc(OC)c(OC)c3)nn(C)c2s1`, the IC50 is greater than 1000 nM in test [1]; greater than 1000 nM in test [2]; greater than 1000 nM in test [3]; greater than 2500 nM on Lysine--tRNA ligase; greater than 2500 nM on Proline--tRNA ligase; greater than 1000 nM in test [4]. The IC50 in test [5] is greater than 1000 nM.

For the compound `O=C(NCC1Cc2cccc(-c3ccncc3)c2O1)c1csc2c1CCCC2` (stereo not drawn), the IC50 is greater than 1000 nM in test [1]; greater than 1000 nM in test [2]; greater than 1000 nM in test [3]; greater than 2500 nM at Lysine--tRNA ligase; greater than 2500 nM on Proline--tRNA ligase; greater than 1000 nM in test [4]. Further, the IC50 in test [5] is greater than 1000 nM.
